Where “and” joins values, the source holds several entries; their conditions need not be identical. Identical values can stand only once. Inconclusive results and toxic doses are left out.
Test system: BDF1 mice, Lewis lung carcinoma iv, survival T/C
Experiment: NCI In Vivo Anticancer Drug Screen. Data for tumor model Lewis Lung Carcinoma (intravenous) in B6D2F1 (BDF1) mice
Conditions: endpoint: median survival time, higher = longer survival
Procedure: The antitumor activity of compounds was measured in mice bearing transplantable tumors. Survival or tumor size were measured and the results are expressed as the measurement made in the treated group (T) divided by the measurement made in the vehicle treated control group (C). The tumor model used in this assay is Lewis Lung Carcinoma (intravenous) in B6D2F1 (BDF1) mice

[1] = dose: 6.25 mg/kg/injection, schedule: Q01DX009 (ip), vehicle: saline with Tween-80
[2] = dose: 12.5 mg/kg/injection, schedule: Q01DX009 (ip), vehicle: saline with Tween-80
[3] = dose: 2.0 mg/kg/injection, schedule: Q01DX009 (ip), vehicle: saline
[4] = dose: 2.5 mg/kg/injection, schedule: Q01DX009 (ip), vehicle: saline
[5] = dose: 5.0 mg/kg/injection, schedule: Q01DX009 (ip), vehicle: saline
[6] = dose: 10.0 mg/kg/injection, schedule: Q01DX009 (ip), vehicle: saline
[7] = dose: 25.0 mg/kg/injection, schedule: Q01DX009 (ip), vehicle: saline
[8] = dose: 50.0 mg/kg/injection, schedule: Q01DX009 (ip), vehicle: saline
[9] = dose: 100.0 mg/kg/injection, schedule: Q01DX009 (ip), vehicle: saline
[10] = dose: 200.0 mg/kg/injection, schedule: Q01DX009 (ip), vehicle: saline
[11] = dose: 12.5 mg/kg/injection, schedule: Q01DX009 (ip), vehicle: saline
[12] = dose: 6.25 mg/kg/injection, schedule: Q01DX009 (ip), vehicle: saline
[13] = dose: 3.12 mg/kg/injection, schedule: Q01DX009 (ip), vehicle: saline with Tween-80
[14] = dose: 25.0 mg/kg/injection, schedule: Q01DX009 (ip), vehicle: saline with Tween-80
[15] = dose: 100.0 mg/kg/injection, schedule: Q01DX009 (ip), vehicle: saline with Tween-80
[16] = dose: 200.0 mg/kg/injection, schedule: Q01DX009 (ip), vehicle: saline with Tween-80
[17] = dose: 400.0 mg/kg/injection, schedule: Q01DX009 (ip), vehicle: saline with Tween-80
[18] = dose: 50.0 mg/kg/injection, schedule: Q01DX009 (ip), vehicle: saline with Tween-80
[19] = dose: 12.5 mg/kg/injection, schedule: Q01DX009 (ip), vehicle: Klucel (hydroxypropylcellulose) (HPC)
[20] = dose: 25.0 mg/kg/injection, schedule: Q01DX009 (ip), vehicle: Klucel (hydroxypropylcellulose) (HPC)
[21] = dose: 50.0 mg/kg/injection, schedule: Q01DX009 (ip), vehicle: Klucel (hydroxypropylcellulose) (HPC)

In the case of `COc1cc2c(c(OC)c1O)-c1ccc(OC)c(=O)cc1[C@@H](NC(=O)C(F)(F)F)CC2`, the T/C (dose: 0.62 mg/kg/injection, schedule: Q01DX009 (ip), vehicle: Klucel (hydroxypropylcellulose) (HPC)) is reported as 101 % of control, the T/C (dose: 1.25 mg/kg/injection, schedule: Q01DX009 (ip), vehicle: Klucel (hydroxypropylcellulose) (HPC)) is reported as 87 % of control and the T/C (dose: 2.5 mg/kg/injection, schedule: Q01DX009 (ip), vehicle: Klucel (hydroxypropylcellulose) (HPC)) is reported as 88 % of control.
For `COc1cc(O)c2c(O)c3c(c4c2c1[C@]1(C4)C(C)=CCCC1(C)C)[C@H](O)[C@@]1(O)CC(=O)C(C(N)=O)=C(O)[C@@]1(O)C3=O`, the T/C (dose: 1.56 mg/kg/injection, schedule: Q01DX009 (ip), vehicle: saline with Tween-80) was 112 % of control, the T/C (dose: 3.13 mg/kg/injection, schedule: Q01DX009 (ip), vehicle: saline with Tween-80) was 100 % of control and the T/C [1] was 103 % of control. The T/C [2] was 102 % of control.
With `O=c1[nH]cc(F)c(=O)[nH]1` the T/C [3] was 106 % of control, the T/C [4] was 108 % of control and the T/C (dose: 4.0 mg/kg/injection, schedule: Q01DX009 (ip), vehicle: saline) was 110 % of control. For the same molecule, the T/C [5] was 116 % of control, the T/C (dose: 7.5 mg/kg/injection, schedule: Q04DX003 (ip), vehicle: saline) was 96 % of control (2×) and 110 % of control and the T/C (dose: 8.0 mg/kg/injection, schedule: Q01DX009 (ip), vehicle: saline) was 112 % of control. The T/C (dose: 9.8 mg/kg/injection, schedule: Q01DX009 (ip), vehicle: saline) was 122 % of control, the T/C [6] was 104 % of control and 109 % of control and 122 % of control and the T/C (dose: 13.2 mg/kg/injection, schedule: Q04DX006 (ip), vehicle: saline) was 104 % of control. The T/C (dose: 14.0 mg/kg/injection, schedule: Q01DX009 (ip), vehicle: saline) was 163 % of control, the T/C (dose: 14.0 mg/kg/injection, schedule: Q01DX022 (ip), vehicle: saline) was 193 % of control and the T/C (dose: 15.0 mg/kg/injection, schedule: Q04DX003 (ip), vehicle: saline) was 105 % of control and 110 % of control (2×). For the same molecule, the T/C (dose: 16.0 mg/kg/injection, schedule: Q01DX009 (ip), vehicle: saline) was 107 % of control, the T/C (dose: 28.6 mg/kg/injection, schedule: Q01DX009 (ip), vehicle: saline) was 109 % of control and the T/C (dose: 32.0 mg/kg/injection, schedule: Q01DX009 (ip), vehicle: saline) was 122 % of control. The T/C (dose: 40.9 mg/kg/injection, schedule: Q01DX009 (ip), vehicle: saline) was 109 % of control and the T/C (dose: 60.0 mg/kg/injection, schedule: Q04DX003 (ip), vehicle: saline) was 150 % of control.
`CC/C(=C(/CC)c1ccc(O)cc1)c1ccc(O)cc1` was tested, and the T/C (dose: 12.5 mg/kg/injection, schedule: Q01DX009 (ip), vehicle: water) was 123 % of control, the T/C (dose: 25.0 mg/kg/injection, schedule: Q01DX009 (ip), vehicle: water) was 102 % of control and the T/C (dose: 50.0 mg/kg/injection, schedule: Q01DX009 (ip), vehicle: water) was 102 % of control. For the same molecule, the T/C (dose: 100.0 mg/kg/injection, schedule: Q01DX009 (ip), vehicle: water) was 106 % of control and the T/C (dose: 200.0 mg/kg/injection, schedule: Q01DX009 (ip), vehicle: water) was 120 % of control.
For `NC(N)=NOCC[C@@H](N)C(=O)O`, the T/C [7] was 105 % of control, the T/C [8] was 99 % of control and the T/C [9] was 107 % of control. The T/C [10] was 94 % of control and the T/C (dose: 400.0 mg/kg/injection, schedule: Q01DX009 (ip), vehicle: saline) was 112 % of control.
`c1ccc(CCN2CCC(CCc3c[nH]c4ccccc34)CC2)cc1` was tested, and the T/C [11] was 100 % of control, the T/C [7] was 104 % of control and the T/C [8] was 116 % of control.
`Nc1nc(=S)c2[nH]cnc2[nH]1` was tested, and the T/C (dose: 0.25 mg/kg/injection, schedule: Q01DX009 (ip), vehicle: saline) was 105 % of control, the T/C (dose: 0.5 mg/kg/injection, schedule: Q01DX009 (ip), vehicle: saline) was 114 % of control and the T/C (dose: 1.0 mg/kg/injection, schedule: Q01DX009 (ip), vehicle: saline) was 107 % of control. The T/C [3] was 92 % of control.
With `C/C=C(\C)c1cc(=O)c2c(C)cc3c(c2o1)C(=O)c1c(O)c(C2CC(C)(N(C)C)C(OC(C)=O)C(C)O2)cc(C2CC(N(C)C)C(O)C(C)O2)c1C3=O` (centres undefined) the T/C (dose: 0.15 mg/kg/injection, schedule: Q01DX009 (ip), vehicle: saline) was 104 % of control, the T/C (dose: 0.31 mg/kg/injection, schedule: Q01DX009 (ip), vehicle: saline) was 101 % of control and the T/C (dose: 0.62 mg/kg/injection, schedule: Q01DX009 (ip), vehicle: saline) was 107 % of control. For the same molecule, the T/C (dose: 1.25 mg/kg/injection, schedule: Q01DX009 (ip), vehicle: saline) was 98 % of control, the T/C [4] was 103 % of control and the T/C [5] was 119 % of control.
With `Nc1ccn([C@@H](C=O)O[C@@H](C=O)CO)c(=O)n1` the T/C [12] was 96 % of control, the T/C [11] was 105 % of control and the T/C [7] was 100 % of control. The T/C [8] was 96 % of control and the T/C [9] was 97 % of control.
With `COc1cc2cc[n+](C)c(Cc3ccccc3)c2cc1OC` the T/C [13] was 285 % of control, the T/C (dose: 3.12 mg/kg/injection, schedule: Q01DX009 (ip), vehicle: saline) was 106 % of control and the T/C [1] was 91 % of control. For the same molecule, the T/C [12] was 108 % of control, the T/C [2] was 161 % of control and the T/C [11] was 116 % of control. For the same molecule, the T/C [14] was 95 % of control and the T/C [7] was 120 % of control.
In the case of `NC1(C(=O)O)CCCc2ccc(N(CCCl)CCCl)cc21` (centres undefined), the T/C [4] is reported as 99 % of control, the T/C [5] is reported as 98 % of control and the T/C (dose: 10.0 mg/kg/injection, schedule: Q01DX009 (ip), vehicle: saline with Tween-80) is reported as 118 % of control. The T/C [6] was 109 % of control and the T/C (dose: 20.0 mg/kg/injection, schedule: Q01DX009 (ip), vehicle: saline with Tween-80) was 108 % of control.
`CCCCCCCCCCCCCCCCCCNC(=S)N/N=C/c1ccc(Cl)cc1Cl` was tested, and the T/C [15] was 110 % of control, the T/C [16] was 108 % of control and the T/C [17] was 93 % of control.
With `N#Cc1nc(C#N)c(Sc2ccccc2)c(Sc2ccccc2)c1Sc1ccccc1` the T/C [13] was 95 % of control, the T/C [1] was 94 % of control and the T/C [2] was 97 % of control. The T/C [14] was 95 % of control, the T/C [18] was 98 % of control and the T/C [15] was 98 % of control.
For `Nc1cc(=O)[nH][nH]1`, the T/C [15] was 99 % of control, the T/C [16] was 91 % of control and the T/C [17] was 95 % of control.
`Cc1cc2nc(Cc3nc4cc(C)c(C)cc4[nH]3)[nH]c2cc1C` was tested, and the T/C [2] was 95 % of control, the T/C [14] was 109 % of control and the T/C [18] was 97 % of control and 104 % of control. For the same molecule, the T/C [15] was 100 % of control.
With `COC1OC(CO)C(O)C(NC(=O)N(C)N=O)C1O` (centres undefined) the T/C [11] was 109 % of control, the T/C [7] was 108 % of control and 115 % of control and the T/C [9] was 123 % of control. The T/C [10] was 152 % of control.
For `CCc1c(CC(=O)O)c2cc(C)ccc2n1Cc1ccc(Cl)cc1`, the T/C (dose: 3.12 mg/kg/injection, schedule: Q01DX009 (ip), vehicle: Klucel (hydroxypropylcellulose) (HPC)) was 110 % of control, the T/C (dose: 3.13 mg/kg/injection, schedule: Q01DX009 (ip), vehicle: Klucel (hydroxypropylcellulose) (HPC)) was 119 % of control and the T/C (dose: 6.25 mg/kg/injection, schedule: Q01DX009 (ip), vehicle: Klucel (hydroxypropylcellulose) (HPC)) was 105 % of control and 108 % of control. For the same molecule, the T/C [19] was 100 % of control and 117 % of control, the T/C [20] was 91 % of control and 99 % of control and the T/C [21] was 95 % of control and 119 % of control. For the same molecule, the T/C (dose: 100.0 mg/kg/injection, schedule: Q01DX009 (ip), vehicle: Klucel (hydroxypropylcellulose) (HPC)) was 112 % of control and 88 % of control.
`O=C1N=C(Oc2ccccc2)SC1=O` was tested, and the T/C [2] was 100 % of control and 109 % of control, the T/C [14] was 97 % of control and the T/C [18] was 94 % of control and 102 % of control. For the same molecule, the T/C [15] was 100 % of control.
For `O=C1C(=O)c2ccccc2C(O)=C1CC=C(Cl)Cl`, the T/C [19] was 104 % of control, the T/C [20] was 93 % of control and the T/C [21] was 91 % of control.

— PubChem BioAssay AID274 (DTP/NCI, 2004)
